How the values were obtained:
human D2L = target: T1, human D2L (Homo sapiens, UniProt P14416); test: Receptor binding assay, inhibition of [3H]-ligand binding to human D2L; settings: [3H]N-methyl spiperone 1 nM, CHO cell membranes, 37°C, 60 min; read-out: D2(Ki µM)
T1 construct: expressed in transfected cells; membranes prepared
Procedure: (§1) Cells stably expressing the human homologs of the receptors (dopamine D2L, serotonin 5HT2A and 5HT2C, α1A adrenergic; cloned and expressed at Hoechst Marion Roussel; Grandy et al., 1989: Monsma et al., 1993; Schwinn et al., 1995) were grown: cell membranes were prepared, and kept frozen until used (Kongsamut et al., 1996). […] All binding parameters were optimized at Hoechst Marion Roussel; ligand KdS were determined using both saturation analysis (Scatchard) as well as kinetic analysis (association and dissociation rates). Each batch of membrane was validated by checking the ligand Kd, and rank order of potency of selected standard compounds. Assays for the serotonin 5HT2A and dopamine D2L receptors were conducted at 37°C in a Tris buffer containing salts (50 mM Tris Buffer, pH 7.7; 120 mM NaCl; 5 mM KCI; 2 mM CaCl2; 1 mM MgCl2), while the serotonin 5-HT2C and α1A adrenergic receptor assays used a different buffer without salts (50 mM Tris, 4 mM CaCl2 and 1% ascorbate, pH 7.4). […]
(§2) Membranes were rapidly thawed and diluted to an appropriate concentration (between 20 - 150 µg protein/assay point depending on receptor expression level) in Tris buffer and homogenized. […] Microscint scintillation cocktail (40 µl) were added and the filter plates were counted in a Packard Top Count scintillation counter.

[1] = Bovine Brain Endothelial Cells (BBMEC) transport study, in vitro BBB permeability; format: in vitro ADME; settings: BBMEC monolayer, mean ± standard deviation
Procedure: The compounds of this invention are capable of crossing the blood-brain barrier (BBB) as shown by their ability to penetrate across a membrane of a monolayer of bovine brain microvessel endothelial cells, an in vitro model for BBB permeability.
The procedure was performed according to: Kenneth L. Audus et al., Brain Microvessel Endothelial Cell Culture System (Chapter 13) pp 239-258. In Models for Assessing Drug Absorption and Metabolism, Ronald T. Borchardt et al. eds., Plenum Press, New York 1996.

human α1A = target: T2, human α1A (Homo sapiens, UniProt P35348); test: Receptor binding assay, inhibition of [3H]-ligand binding to human α1A; settings: [3H]prazosin 1 nM, CHO cell membranes, 37°C, 40 min
T2 construct: expressed in transfected cells; membranes prepared
T2 sequence (P35348 1-466): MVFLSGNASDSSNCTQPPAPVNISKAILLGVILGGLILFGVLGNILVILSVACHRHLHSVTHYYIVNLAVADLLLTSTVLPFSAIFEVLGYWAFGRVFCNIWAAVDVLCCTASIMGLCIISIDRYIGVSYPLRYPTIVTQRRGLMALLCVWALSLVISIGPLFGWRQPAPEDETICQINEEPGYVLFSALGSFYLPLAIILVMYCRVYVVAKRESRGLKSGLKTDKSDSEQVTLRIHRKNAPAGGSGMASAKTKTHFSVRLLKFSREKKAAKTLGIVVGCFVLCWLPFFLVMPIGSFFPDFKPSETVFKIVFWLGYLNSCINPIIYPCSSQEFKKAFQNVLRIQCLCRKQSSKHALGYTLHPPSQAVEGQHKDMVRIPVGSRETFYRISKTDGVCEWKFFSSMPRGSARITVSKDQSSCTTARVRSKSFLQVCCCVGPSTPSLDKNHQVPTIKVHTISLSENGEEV
Procedure: as §1, §2

human 5-HT2C = target: T3, human 5-HT2C (Homo sapiens, UniProt P28335); test: Receptor binding assay, inhibition of [3H]-ligand binding to human 5-HT2C; settings: [3H]mesulergine 2 nM, CHO cell membranes, 37°C, 40 min
T3 construct: expressed in transfected cells; membranes prepared
T3 sequence (P28335 33-458): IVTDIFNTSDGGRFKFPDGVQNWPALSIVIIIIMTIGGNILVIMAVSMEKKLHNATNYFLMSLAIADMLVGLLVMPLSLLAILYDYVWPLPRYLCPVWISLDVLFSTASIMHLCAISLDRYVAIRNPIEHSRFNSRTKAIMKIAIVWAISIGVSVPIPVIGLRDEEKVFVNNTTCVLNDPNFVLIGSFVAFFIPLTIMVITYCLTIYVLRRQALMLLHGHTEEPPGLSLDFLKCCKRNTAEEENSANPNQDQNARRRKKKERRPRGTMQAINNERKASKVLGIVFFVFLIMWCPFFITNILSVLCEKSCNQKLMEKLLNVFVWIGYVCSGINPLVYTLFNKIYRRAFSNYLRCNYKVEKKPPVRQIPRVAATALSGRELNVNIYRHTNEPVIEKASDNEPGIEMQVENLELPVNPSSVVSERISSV
Procedure: as §1, §2

human 5-HT2A = target: T4, human 5-HT2A (Homo sapiens, UniProt P28223); test: Receptor binding assay, inhibition of [3H]-ligand binding to human 5-HT2A
T4 construct: expressed in transfected cells; membranes prepared
Procedure: Cells stably expressing the human homologs of the receptors (dopamine D2L, serotonin 5HT2A and 5HT2C, α1A adrenergic; cloned and expressed at Hoechst Marion Roussel; Grandy et al., 1989: Monsma et al., 1993; Schwinn et al., 1995) were grown: cell membranes were prepared, and kept frozen until used (Kongsamut et al., 1996). The relevance of these binding sites has been extensively discussed in the literature (see for example: Carlsson & Carlsson. 1990; Creese et al., 1976; Gorman & Vargas, 1995; Meltzer et al., 1989). All binding parameters were optimized at Hoechst Marion Roussel; ligand KdS were determined using both saturation analysis (Scatchard) as well as kinetic analysis (association and dissociation rates). Each batch of membrane was validated by checking the ligand Kd, and rank order of potency of selected standard compounds. […]
as §2, with “counter. Data were analyzed to determine Ki's for compounds of interest (Prusoff & Cheng, […]).Table: Receptor Binding Parameters. […]” for “counter.”

T4 sequence (P28223 whole entry): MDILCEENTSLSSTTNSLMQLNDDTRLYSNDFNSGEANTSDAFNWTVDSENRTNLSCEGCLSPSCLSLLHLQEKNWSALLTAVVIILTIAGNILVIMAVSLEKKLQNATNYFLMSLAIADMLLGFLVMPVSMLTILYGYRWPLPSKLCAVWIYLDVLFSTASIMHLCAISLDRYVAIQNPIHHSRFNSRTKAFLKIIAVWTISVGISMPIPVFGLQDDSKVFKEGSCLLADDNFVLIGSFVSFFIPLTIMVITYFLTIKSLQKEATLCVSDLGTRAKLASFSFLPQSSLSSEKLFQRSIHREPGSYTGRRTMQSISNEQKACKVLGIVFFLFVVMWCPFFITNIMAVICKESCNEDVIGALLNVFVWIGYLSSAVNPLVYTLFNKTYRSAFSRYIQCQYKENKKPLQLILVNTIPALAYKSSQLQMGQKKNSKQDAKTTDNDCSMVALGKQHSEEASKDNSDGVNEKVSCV
T1 sequence (P14416 whole entry): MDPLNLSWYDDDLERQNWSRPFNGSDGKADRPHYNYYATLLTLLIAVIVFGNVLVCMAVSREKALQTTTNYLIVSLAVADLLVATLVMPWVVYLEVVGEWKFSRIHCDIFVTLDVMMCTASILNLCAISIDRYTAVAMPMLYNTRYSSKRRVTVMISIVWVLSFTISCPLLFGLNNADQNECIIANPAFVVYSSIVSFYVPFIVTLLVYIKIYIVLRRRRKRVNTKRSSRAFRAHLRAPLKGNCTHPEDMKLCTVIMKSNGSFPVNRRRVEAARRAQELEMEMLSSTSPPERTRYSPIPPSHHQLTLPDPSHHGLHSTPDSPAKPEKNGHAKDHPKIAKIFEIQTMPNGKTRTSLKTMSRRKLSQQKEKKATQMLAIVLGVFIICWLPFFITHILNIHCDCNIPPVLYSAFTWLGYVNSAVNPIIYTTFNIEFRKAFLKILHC

Structure (SMILES) | Ki (human D2L) [µM] | Papp at 5.4 µM [1] [×10⁻⁶ cm/s] | Papp at 16 µM [1] [×10⁻⁶ cm/s] | Ki (human α1A) [µM] | Ki (human 5-HT2C) [µM] | Ki (human 5-HT2A; [3H]N-methyl spiperone 1.5 nM, BHK cell membranes, 37°C, 40 min) [µM] | Kd (human 5-HT2A; radioligand Kd at human 5-HT2A, BHK, saturation (Scatchard) and kinetic analysis) [nM]
COc1c(OS(=O)(=O)O)cccc1C(O)C1CCN(CCc2ccc(F)cc2)CC1 (single isomer, unassigned) [Example 1H, Sulfuric acid mono-(+)-(3-(-{1-[2-(4-fluoro-phenyl)-ethyl]-piperidin-d-yl}-hydroxy-methyl)-2-methoxy-phenyl] ester] | > 1 | 41.4 ± 16.4 | 52.5 ± 9.5 | > 1 | > 1 | 0.16 | 
OC[C@@H](O)[C@@H](O)[C@H](O)[C@H](O)CO [Mannitol, reference compound] |  | 27.6 ± 2.3 | 27.6 ± 2.3 |  |  |  | 
CN1CN(c2ccccc2)C2(CCN(CCCC(=O)c3ccc(F)cc3)CC2)C1=O [[^3H]N-methyl spiperone, reference compound] |  |  |  |  |  |  | 0.92

From patent EP1202967B1, “SULFURIC ACID MONO-[3-({1-[2-(4-FLUORO-PHENYL)-ETHYL]-PIPERIDIN-4-YL}-HYDROXY-METHYL)-2-METHOXY-PHENYL]ESTER” (AVENTIS PHARMACEUTICALS INC., priority 1999, dated 2001)
